In patent US6646124B2, “Substituted 4-oxo-napthyridine-3-carboxamides: GABA brain receptor ligands” (Neurogen Corporation, priority 1997, dated 2003):

melting point | Structure (SMILES)
190 °C | CCOc1ccc2[nH]cc(C(=O)NCc3ccc4c(c3)OCO4)c(=O)c2n1 [Compound 9, N-Piperonyl 6-ethoxy-4-oxo-1,4-tetrahydro-1,5-naphthyridine-3-carboxamide]
257 to 259 °C (dec.) | CCSCCNC(=O)c1c[nH]c2ccc(OC)nc2c1=O [Compound 5, N-[2-(ethylthio)ethyl] 6-methoxy-4-oxo-1,4-dihydro-1,5-napththyridine-3-carboxamide]
235 to 237 °C | CCOc1ccc2[nH]cc(C(=O)NCC3CCCO3)c(=O)c2n1 (stereo not shown) [Compound 4, N-(2-Tetrahydrofuranyl)methyl 6-ethoxy-4-oxo-1,4-tetrahydro-1,5-naphthyridine-3-carboxamide]
137 to 139 °C | O=C(NCc1ccccc1F)c1c[nH]c2ccc(N3CCOCC3)nc2c1=O [Compound 7, N-(2-Fluorobenzyl) 6-morpholino-4-oxo-1,4-tetrahydro-1,5-naphthyridine-3-carboxamide]
